For assay [1], the target named is T1, human 5-HT6 receptor (Homo sapiens, UniProt P50406).
T1 construct: expressed in transfected cells; host or cells: HEK293 (G-418 selected), membrane preparation
The assay is described as follows: 5-HT6 receptor binding assay ([3H]-LSD, SPA, membranes of transfected HEK293 cells).

Assay [2] deals with T1, human 5-HT6 receptor. The assay is described as follows: 5-HT6 intrinsic activity assay (inhibition of 5-HT induced increase in cAMP). The assay is classed as cell-based. The note with it: read-out: Antagonist potency at the h5-HT6 receptor, IC50,corr. How it is done:
(b) 5-HT6 Intrinsic Activity Assay
Briefly, HEK293/5-HT6 cells were seeded in polylysine coated 96-well plates at a density of 25,000/well and grown in DMEM (Dulbecco's Modified Eagle Medium) (without phenol-red) containing 5% dialyzed Foetal Bovine Serum for 48 h at 37° C. in a 5% CO2 incubator. The medium was then aspirated and replaced by 0.1 ml assay medium (Hanks Balance Salt Solution containing 20 mM HEPES, 1.5 mM isobutylmethylxanthine and 1 mg/ml bovine serum albumin). After addition of test substances, 50 μl dissolved in assay medium, the cells were incubated for 10 min at +37° C. in a 5% CO2 incubator. The medium was again aspirated and the cAMP content was determined using a radioactive cAMP kit (Amersham Pharmacia Biotech, BIOTRAK RPA559).

Structures can show the parent of a compound that is named as a salt. Where two headings read alike, the source gives them in different places.

T1 sequence (P50406 whole entry): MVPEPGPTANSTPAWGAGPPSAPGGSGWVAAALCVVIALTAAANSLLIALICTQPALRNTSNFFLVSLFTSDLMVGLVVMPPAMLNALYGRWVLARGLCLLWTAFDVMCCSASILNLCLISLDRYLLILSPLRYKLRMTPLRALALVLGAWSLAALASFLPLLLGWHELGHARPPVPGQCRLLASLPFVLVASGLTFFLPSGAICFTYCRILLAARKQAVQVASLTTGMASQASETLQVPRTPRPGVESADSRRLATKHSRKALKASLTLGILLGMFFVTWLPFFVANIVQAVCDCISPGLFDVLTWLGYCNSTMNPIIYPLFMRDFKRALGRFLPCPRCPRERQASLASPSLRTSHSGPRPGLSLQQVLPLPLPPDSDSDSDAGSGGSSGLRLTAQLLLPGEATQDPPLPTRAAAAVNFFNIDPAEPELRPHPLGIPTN

With `NCCc1c[nH]c2ccc(O)cc12` [Example 5-HT, 5-hydroxytryptamine, reference compound], the Hill coefficient at human 5-HT6 receptor [1] (inter assay, over three experiments) is 0.94 (SD 0.09).
In general, Ki refers to the equilibrium dissociation constant of an inhibitor or competing ligand from its target. In the case of `CCN1Cc2cccc3c2c(cn3S(=O)(=O)c2ccccc2)C1` [Example 5, 4-Ethyl-1-(phenylsulfonyl)-1,3,4,5-tetrahydropyrrolo[4,3,2-de] isoquinoline trifluoroacetate], the Ki on human 5-HT6 receptor [1] (read-out: Binding affinity (Ki) at the h5-HT6 receptor) was 21 nM.
Turning to `CN1CCc2cccc3c2c(cn3S(=O)(=O)c2ccccc2)C1` [Example 13, 4-Methyl-1-(phenylsulfonyl)-3,4,5,6-tetrahydro-1H-azepino[3,4,5-cd]indole hydrochloride], the Ki on human 5-HT6 receptor [1] was 6 nM.
As a reminder, the IC50 is the concentration needed to halve the response being measured. Turning to `O=S(=O)(c1ccccc1)n1cc2c3c(cccc31)CN(Cc1ncc[nH]1)C2` [Example 3, 4-(1H-Imidazol-2-ylmethyl)-1-(phenylsulfonyl)-1,3,4,5-tetrahydropyrrolo[4,3,2-de]isoquinoline bis(trifluoroacetate)], the IC50 on human 5-HT6 receptor [2] worked out at 28 nM.
Still for that read-out and setting: the figure for `O=S(=O)(c1ccccc1)n1cc2c3c(cccc31)CNCC2` [Example 15, 1-(Phenylsulfonyl)-3,4,5,6-tetrahydro-1H-azepino[5,4,3-cd]indole] is 8 nM.

(Values after patent US8138333B2, “Sulfonyl-indole derivatives” (Proximagen Limited, priority 2007, dated 2012).)
